Results taken from PMC7531004, “Discovery of gramicidin A analogues with altered activities by multidimensional screening of a one-bead-one-compound library” (Nature Communications, 2020).
Where a SMILES comes first, the peptide text is derived from it. [ ]: non-standard residue; d: D form. The star is where a group is joined. NHCH2CH2OH = OCCN*; For = O=C*

Columns and labels:
[1] = H+/Na+ transport assay of bead-derived peptides (one-point); assay type: biochemical; parameters: key: relative activity; mean of two control wells = 1.00; conditions: bead-derived peptide solution, EYPC/EYPG LUVs;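 note: relative to parent gramicidin A activity set to 1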
Protocol: (§1) Each type of assay must be simplified and miniaturized to assess the activities of the library peptides in a 96-well format for the high-throughput screening.
H+/Na+ transport assay of bead-derived peptides.1,2,3 Trisodium 8-hydroxypyrene-1,3,6-trisulfonate
mini-extruder apparatus (Avanti Polar Lipids).
28.9 µmol) in CHCl3 (225 µL) and egg yolk phosphatidylglycerol (1.20 mg, 1.56 µmol) in CHCl3 (60.0 µL)
The thin film was hydrated and
1.0 mM pyranine) by sonication.
A suspension of the LUVs was immediately
used for the H+/Na+ transport assay.
The diluted solution of peptide
flat-bottom 96-well plate (655086, Greiner bio-one).
was vortexed at room temperature for 30 min.
(5/95, 3.0 µL) and the LUV suspension were mixed in each plate to determine 100% lysis. The untreated
LUV suspension was used to determine 0% lysis.
normalized against 100% lysis by Triton X-100 (Imax) and 0% lysis (I0) as following, where Ix is the
fluorescence intensity (Supplementary Equation 2).
I = 100 × (Ix – I0) / (Imax – I0) (2)
The mean value of the two control wells was set to 1.00. […]

[2] = system: Streptococcus pyogenes SSI-9; test: Antibacterial activity assay of bead-derived peptides (three concentrations); assay type: cell-based; parameters: key: +++: inhibition by the 640-fold diluted peptide solution; ++: inhibition by the 160-fold diluted solution; +: inhibition by the 40-fold diluted solution; -: no inhibition; conditions: S. pyogenes, bead-derived peptide solution, three concentrations
Protocol: as §1
Next, the peptides in groups A and B were subjected to the antibacterial assay and structural determination. Three peptide concentrations were applied to evaluate the growth inhibition of S. pyogenes and determine the antibacterial activity. […] Finally, the structures of the peptides were determined. […]
Antibacterial activity assay of bead-derived peptides. The stock solution of the peptide library was 4- and […]
16-fold diluted with DMSO. The non-diluted stock solution, 4-fold diluted solution, and 16-fold diluted […]
solution were transferred to the 96-well round-bottom plate (3367, Corning, 1.0 µL/well). To the solution of […]
peptide in each well was added a suspension of Streptococcus pyogenes SSI-9 strain in cation adjusted […]
Mueller Hinton Broth [40.0 µL, 2 × 10^5 colony forming units (CFU), 21 g/L Mueller Hinton Broth (Difco), 50 […]
mg/L Ca2+ (adjusted with CaCl2•2H2O), and 25 mg/L Mg2+ (adjusted with MgCl2•6H2O)] supplemented with […]
5% laked horse blood (Nippon Biotest Laboratories). The plate was incubated at 37 °C for 18 h, and the precipitation of the grown cells was examined. […]

[3] = system: P388 mouse leukemia cells; conditions: 92 h
Excerpt: Each type of assay must be simplified and miniaturized to assess the activities of the library peptides in a 96-well format for the high-throughput screening. […]
Mammalian cytotoxicity assay of bead-derived peptides . P388 cells were obtained from Institute of
Development Aging and Cancer (Tohoku University). The cells were maintained with growth medium
[RPMI1640 with phenol red ( Fujifilm Wako Pure Chemical) supplemented with 10% heat -inactivated fetal
bovine serum, pe nicillin G (100 units/mL), and streptomycin (100 µg/mL)] under atmosphere of 5% CO 2 at
The collected cells were resuspended into
the growth medium at 2 × 10^4 cells/mL. The stock solutions of the peptide library were 250-fold diluted
with the growth medium. Aliquots of the medium (100 µL) containing peptides and the latter medium
containing P388 cells (100 µL) were mixed in a 96-well cell culture plate (TR5003, TrueLine). The final
concentration of P388 cells was 1 × 10^4 cells/mL. After incubation under atmosphere of 5% CO2 at 37 °C
for 92 h, the numbers of viable cells were determined by
2-(4-iodophenyl)-3-(4-nitrophenyl)-5-(2,4-disulfophenyl)-2H-tetrazolium, monosodium salt (WST-1) assay.
A solution of 1-methoxy-5-methylphenazinium methyl sulfate (1-methoxy PMS) and WST-1 in the growth
medium (1-methoxy PMS 0.70 mg/mL in Milli-Q/WST-1 3.6 mg/mL in pH 7.4 HEPES buffer = 1/9) was
added to each well of the plate (10.0 µL/well). The plate was incubated for 4 h under atmosphere of 5% CO2
at 37 °C. The absorbance of each well at 415 nm was measured using a Benchmark microplate reader
(Bio-Rad). The cytotoxicities were evaluated as cell viability (%). […]

For `CC(C)C[C@@H](NC(=O)[C@H](C)NC(=O)CNC(=O)[C@@H](NC=O)C(C)C)C(=O)N[C@@H](C)C(=O)N[C@H](CC(C)C)C(=O)N[C@H](C(=O)N[C@@H](C(=O)N[C@@H](Cc1c[nH]c2ccccc12)C(=O)N[C@@H](C(=O)N[C@@H](Cc1c[nH]c2ccccc12)C(=O)N[C@@H](C(=O)N[C@@H](Cc1c[nH]c2ccccc12)C(=O)N[C@H](CC(C)C)C(=O)N[C@@H](Cc1c[nH]c2ccccc12)C(=O)NCCO)C(C)C)C(C)C)[C@H](C)O)C(C)C` [compound 7548] (For-VGA[dL]A[dL]V[dT]W[dV]W[dV]W[dL]W-NHCH2CH2OH), the “H+/Na+ transport activity normalized against the value of 1 (1.00)” value (from here on “H+/Na+ transport activity normalized”) [1] was 1.08, the antibacterial activity [2] was “-” and the cell viability/% [3] was 100.0%.

In the case of `CC(C)C[C@@H](NC(=O)[C@H](Cc1c[nH]c2ccccc12)NC(=O)[C@H](NC(=O)[C@@H](NC(=O)[C@H](NC(=O)[C@H](C)NC(=O)[C@H](NC(=O)[C@H](C)NC(=O)CNC(=O)[C@@H](NC=O)C(C)C)C(C)C)C(C)C)C(C)C)[C@H](C)O)C(=O)N[C@@H](Cc1c[nH]c2ccccc12)C(=O)N[C@@H](C(=O)N[C@@H](Cc1c[nH]c2ccccc12)C(=O)N[C@@H](C(=O)N[C@@H](Cc1c[nH]c2ccccc12)C(=O)NCCO)C(C)C)C(C)C` [compound 8596] (For-VGA[dV]A[dV]V[dT]W[dL]W[dV]W[dV]W-NHCH2CH2OH), the “H+/Na+ transport activity normalized” value [1] is reported as 1.07, the antibacterial activity [2] is reported as “-” and the cell viability/% [3] is reported as 56.2%.

In the case of `CC(C)C[C@@H](NC(=O)[C@H](C)NC(=O)CNC(=O)[C@@H](NC=O)C(C)C)C(=O)N[C@@H](C)C(=O)N[C@H](CC(C)C)C(=O)N[C@H](C(=O)N[C@@H](C(=O)N[C@@H](Cc1c[nH]c2ccccc12)C(=O)N[C@@H](C(=O)N[C@@H](Cc1c[nH]c2ccccc12)C(=O)N[C@H](CC(C)C)C(=O)N[C@@H](Cc1c[nH]c2ccccc12)C(=O)N[C@H](CC(C)C)C(=O)N[C@@H](Cc1c[nH]c2ccccc12)C(=O)NCCO)[C@H](C)O)C(C)C)C(C)C` [compound 7067] (For-VGA[dL]A[dL]V[dV]W[dT]W[dL]W[dL]W-NHCH2CH2OH), the “H+/Na+ transport activity normalized” value [1] is reported as 1.02, the antibacterial activity [2] is reported as “-” and the cell viability/% [3] is reported as 100.0%.

In the case of `CC(C)C[C@@H](NC(=O)[C@H](C)NC(=O)CNC(=O)[C@@H](NC=O)C(C)C)C(=O)N[C@@H](C)C(=O)N[C@H](CC(C)C)C(=O)N[C@H](C(=O)N[C@@H](C(=O)N[C@@H](Cc1c[nH]c2ccccc12)C(=O)N[C@H](CC(C)C)C(=O)N[C@@H](Cc1c[nH]c2ccccc12)C(=O)N[C@@H](C(=O)N[C@@H](Cc1c[nH]c2ccccc12)C(=O)N[C@@H](C(=O)N[C@@H](Cc1c[nH]c2ccccc12)C(=O)NCCO)C(C)C)[C@H](C)O)C(C)C)C(C)C` [compound 13273] (For-VGA[dL]A[dL]V[dV]W[dL]W[dT]W[dV]W-NHCH2CH2OH), the “H+/Na+ transport activity normalized” value [1] is reported as 1.05, the antibacterial activity [2] is reported as “-” and the cell viability/% [3] is reported as 100.0%.

In the case of `CC(C)C[C@@H](NC(=O)[C@H](C)NC(=O)[C@H](NC(=O)[C@H](C)NC(=O)CNC(=O)[C@@H](NC=O)C(C)C)[C@H](C)O)C(=O)N[C@H](C(=O)N[C@H](CC(C)C)C(=O)N[C@@H](Cc1c[nH]c2ccccc12)C(=O)N[C@@H](C(=O)N[C@@H](Cc1c[nH]c2ccccc12)C(=O)N[C@H](CC(C)C)C(=O)N[C@@H](Cc1c[nH]c2ccccc12)C(=O)N[C@@H](C(=O)N[C@@H](Cc1c[nH]c2ccccc12)C(=O)NCCO)C(C)C)C(C)C)C(C)C` [compound 6797] (For-VGA[dT]A[dL]V[dL]W[dV]W[dL]W[dV]W-NHCH2CH2OH), the “H+/Na+ transport activity normalized” value [1] is reported as 1.02, the antibacterial activity [2] is reported as “-” and the cell viability/% [3] is reported as 100.0%.
